Each block holds one compound with its values, some of them ahead of it.
Assays:
HeLa cells [1] = experiment: Caspase 3/7 assay (apoptosis); assay type: cell-based; details: 24 and 48 hours
Method: The effect of STAT3 inhibitor on caspase activity was evaluated using a Caspase-Glo 3/7 kit (Promega) according to product directions. Briefly, HeLa cells were plated in white-walled, clear bottom 96-well plates at a density of 5,000 cells/well in 100 μL of media and were incubated for 24 hours. Media was then aspirated and replaced with 100 μL of media containing 1 μM or 10 μM of STAT3 inhibitor. Cells were exposed to compounds for 24 and 48 hours, following which plates were allowed to equilibrate to room temperature. Reconstituted caspase reagent was added to sample wells in a 1:1 ratio, mixed, and incubated in the dark for 1 hour. Luminescence was read using a microplate reader.

STAT3 = target: T1, STAT3 (Homo sapiens, UniProt P40763); experiment: Cell-based STAT3 DNA-binding ELISA; details: HeLa; for reduction of STAT3/DNA-binding: 24 h, 1 μM; for EC50: 24 h dose response
T1 construct: endogenous in cells; host or cells: HeLa
Method: Nuclear extracts were prepared using a nuclear extraction kit (Signosis) according to product directions. Briefly, 100 mm dishes of cells were washed with 1×PBS and then 1 mL of 1× Buffer I was added and dishes were rocked on ice for 10 minutes. Cells were released from the dish using a sterile scraper and centrifuged at 1200 rpm for 5 minutes at 4° C. The supernatant was discarded and the pellets were resuspended in 1× Buffer II and shaken on ice for 2 hours. Samples were centrifuged at 1200 rpm for 5 minutes at 4° C. and the resulting supernatants containing the nuclear extracts were placed in new microcentrifuge tubes. Protein concentrations of samples were determined via Bradford assay.
HeLa cells were plated at 1 million cells per 100 mm dish and incubated for approximately 72 hours, resulting in serum-starved confluent plates. Plates were then washed with PBS and fresh media was added containing concentrations of compounds to be evaluated or niclosamide for 24 hours. For single concentrations of compounds, cells were treated with 1 μM of compounds, as derived from 24 hour MTT assay EC50 value for niclosamide. Dose-responses of niclosamide, compound 8, and compound 17 were similarly prepared at concentrations ranging from 2-0.0156 μM. Following incubation with compounds, cellular nuclear extracts were prepared.
Measurement of STAT3 binding to DNA was performed using the TransAM STAT3 ELISA kit. Sample wells contained 20 μg of nuclear extracts from treated HeLa cells diluted in 20 μL of Complete Lysis Buffer. The ELISA was then performed as described in the recombinant ELISA section. Data was normalized and reported as percent of control.

HeLa cells [2] = experiment: MTT cell viability assay; assay type: cell-based; details: 24 h; for EC50: Homo sapiens
Method: HeLa cells were plated in 96-well plates at a density of 5,000 cells/well in 100 μL of media and were incubated for 24 hours. Media was then aspirated and replaced with 100 μL of media containing various concentrations of compounds ranging from 500 μM-0.0019 μM. Cells were exposed to compounds for 24 hours, following which the media was aspirated and 50 μL MTT solution diluted in media was added to each well at a final concentration of 1 mg/mL. MTT was exposed to cells for 4 hours, aspirated, and then 100 μL of DMSO was added to each well. Plates were agitated for 10 minutes prior to reading absorbance at 540 nm in a microplate reader. Data was normalized and reported as percent of control.

[3] = target: T2, full-length, GST-tagged human STAT3 protein (Homo sapiens, UniProt P40763); experiment: Recombinant STAT3 ELISA (STAT3/DNA binding); assay type: biochemical; details: 2 μM; for mean value, % of STAT3 only control: 1 hour incubation
T2 construct: full-length, GST-tagged human STAT3 protein and various concentrations of compounds
Method: Measurement of STAT3 binding to DNA was performed using a TransAM STAT3 ELISA kit (Active Motif) and according to the previously used protocol. Briefly, full-length, GST-tagged human STAT3 protein and various concentrations of compounds to be evaluated or niclosamide were incubated in Complete Lysis Buffer at a final volume of 20 μL containing 0.1 μg recombinant protein for 1 hour with mild agitation. Following incubation with STAT3 inhibitors, samples were added to corresponding ELISA wells with 30 μL of Complete Binding Buffer and inhibition of STAT3 protein binding to the DNA consensus sequence was determined. Data was reported as percent of control.

SH2 domain of STAT3 [4] = target: T3, SH2 domain of STAT3 (Homo sapiens, UniProt P40763); experiment: Fluorescence polarization (FP) assay; assay type: binding; details: 25 μM
T3 construct: 100 nM of full length GST-tagged human STAT3 protein (Abcam); purchased Abcam
Method: FP assay was conducted as previously reported (Steffanie L. Furtek, S. L., et al., Evaluation of quantitative assays for the identification of direct signal transducer and activator of transcription 3 (STAT3) inhibitors (November 2016) Oncotarget 7(47): 77998-78008). Briefly, assay buffer (10 mM HEPES, pH 7.5, 50 mM NaCl, 1 mM EDTA, 2 mM DTT, and 0.01% Triton-X100), 100 nM of full length GST-tagged human STAT3 protein (Abcam), and varying concentrations of compounds were incubated for 1 hour at room temperature with mild agitation in 96-well half area black plates (Corning). Fluorescent peptide 5-FAM-G(pTyr)LPQTV-CONH2 (Genscript) was added to each assay well at a concentration of 10 nM. Final well volumes were 30 μL. Following incubation with fluorescent peptide for 30 minutes at room temperature with mild agitation, plates were examined using FP Fluorescein Dual module with excitation filter FITC FP 480 and emission filter FITC FP P-pol535 and S-pol535. Data was expressed as percent control using the equation % C=(mPdrug−mPfree)/(mPSTAT3−mPfree)*100 where mP is the value for FP measurement.

SH2 domain of STAT3 [5] = target: T3, SH2 domain of STAT3; details: concentrations above 10 μM; cited from earlier work
Primary AML cells = experiment: Engraftment of treated primary AML cells transplanted into immunodeficient mice; assay type: in vivo; details: then transplanted into immunodeficient mice
Method: Primary AML cells were treated with compound 17 (STAT3i) and transplanted into immunodeficient mice.

Primary AML samples = experiment: Glutamine flux, ROS and western blot in primary AML samples; assay type: cell-based
Method: Primary AML samples were incubated with heavy labeled glutamine in flux experiments aimed at measuring TCA cycle metabolites. […] FIG. 22 is a graph showing that reactive oxygen species (ROS) is increased in AML cells that were treated with compound 17 (STAT3i).

[6] = tested on: Leukemia Stem cells (LSCs); experiment: Seahorse assay of oxygen consumption; assay type: cell-based; details: four hours incubation
Method: (§1) Leukemia stem cells (LSCs) were incubated with compound 17 (STAT3i) for four hours. Seahorse assays were then used to measure oxygen consumption. […] Flow cytometry analysis verified that there was no cell death at the time of RNAseq analysis. FIG. 19 is a chart showing the expression changes of various genes involved in OXPHOS after incubation with compound 17. FIG. 20 is an image of western blot analysis of the expression of electron transport chain genes after incubating cells with compound 17.

[7] = tested on: Cord-blood derived CD34+ normal hematopoietic stem cells; experiment: Colony formation of normal hematopoietic stem cells; assay type: cell-based
Method: (§2) Cord-blood derived CD34+ normal hematopoietic stem cells were treated with compound 17 (STAT3i).

Primary human AML cells = experiment: Colony formation on methylcellulose; assay type: cell-based
Method: (§3) Leukemia Stem cells (LSCs) were incubated with compound 17 (STAT3i) for 24 hours and cell viability was measured. […] Primary human AML cells were treated with compound 17 (STAT3i). The cells were then cultured on methylcellulose and colony formation was measured. […] STAT3 was knocked down in primary human AML samples using shRNA methods (shSTAT3).

[8] = tested on: Leukemia Stem cells (LSCs); experiment: Leukemia stem cell viability (apoptosis markers, flow cytometry); assay type: cell-based; details: 24 hours
Method: as §3

[9] = tested on: Leukemia Stem cells (LSCs); experiment: RNAseq, qPCR and western blot expression analysis in LSCs; assay type: cell-based
Method: as §1
Leukemia stem cells (LSCs) were incubated with compound 17 (STAT3i) and RNAseq analysis was subsequently performed. […] Knockdown of Myc in LSCs using siRNA leads to a subsequent downregulation of the glutamine receptor SLC1A5 and a decrease in OXPHOS.

[10] = tested on: Cord-blood derived CD34+ normal hematopoietic stem cells; experiment: Viability of normal hematopoietic stem cells; assay type: cell-based
Method: as §2

T3 sequence (P40763 whole entry, the tested form may be a part): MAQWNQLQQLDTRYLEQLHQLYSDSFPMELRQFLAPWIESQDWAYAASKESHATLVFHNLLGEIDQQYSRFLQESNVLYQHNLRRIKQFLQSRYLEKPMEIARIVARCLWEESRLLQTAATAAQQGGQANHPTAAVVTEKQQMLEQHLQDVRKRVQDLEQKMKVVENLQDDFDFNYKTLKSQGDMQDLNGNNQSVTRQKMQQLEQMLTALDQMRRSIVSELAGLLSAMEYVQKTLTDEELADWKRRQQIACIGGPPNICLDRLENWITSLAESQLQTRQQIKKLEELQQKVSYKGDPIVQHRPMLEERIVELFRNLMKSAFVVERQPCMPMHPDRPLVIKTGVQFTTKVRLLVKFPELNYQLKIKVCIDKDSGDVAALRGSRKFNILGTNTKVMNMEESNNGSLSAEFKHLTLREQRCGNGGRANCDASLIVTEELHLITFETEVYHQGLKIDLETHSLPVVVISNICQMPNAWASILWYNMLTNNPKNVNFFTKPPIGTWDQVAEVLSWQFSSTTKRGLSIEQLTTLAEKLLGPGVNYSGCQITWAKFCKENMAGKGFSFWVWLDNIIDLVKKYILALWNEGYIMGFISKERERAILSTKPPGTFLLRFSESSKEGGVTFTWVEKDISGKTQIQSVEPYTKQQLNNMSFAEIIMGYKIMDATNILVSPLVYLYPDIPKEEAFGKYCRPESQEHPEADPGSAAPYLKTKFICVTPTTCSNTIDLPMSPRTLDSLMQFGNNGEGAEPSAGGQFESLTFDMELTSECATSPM
T2 sequence (P40763 whole entry): as the sequence (P40763 whole entry, the tested form may be a part) above
T1 sequence (P40763 whole entry): as the sequence (P40763 whole entry, the tested form may be a part) above

- reduction of STAT3/DNA-binding (STAT3): approx. 80%
- EC50 (STAT3): 239 ± 39 nM
- EC50 (HeLa cells [2]): 1150 ± 380 nM
- reduction of recombinant STAT3/DNA-binding relative to niclosamide [3]: means less than or equal to niclosamide
Compound: CN(C(=O)c1cc(Cl)ccc1O)c1ccc([N+](=O)[O-])cc1Cl [Compound 8, 5-Chloro-N-(2-chloro-4-nitrophenyl)-2-hydroxy-N-methylbenzamide]
- induction of apoptosis (HeLa cells [1]; 10 μM): time-dependent increase in apoptosis

- reduction of recombinant STAT3/DNA-binding relative to niclosamide [3]: means less than or equal to niclosamide
Compound: O=C(Nc1ccc([N+](=O)[O-])cc1Cl)c1cc(Cl)ccc1Cl [Compound 18, 2,5-Dichloro-N-(2-chloro-4-nitrophenyl)benzamide]

- affinity for the SH2 domain (SH2 domain of STAT3 [4]): slight affinity for the SH2 domain
Compound: O=C(Nc1ccc([N+](=O)[O-])cc1Br)c1cc(Br)ccc1O [Compound 2, 5-Bromo-N-(2-bromo-4-nitrophenyl)-2-hydroxybenzamide]

Compound: S3I-1757 [Compound S3I-1757]
- inhibition of fluorescent peptide binding (SH2 domain of STAT3 [5]): complete inhibition

- affinity for the SH2 domain (SH2 domain of STAT3 [4]): slight affinity for the SH2 domain
Compound: Nc1ccc(NC(=O)c2cc(N)ccc2O)c(Cl)c1 [Compound 10, 5-Amino-N-(4-amino-2-chlorophenyl)-2-hydroxybenzamide]

Compound: O=C(Nc1ccc([N+](=O)[O-])cc1Cl)c1cc([N+](=O)[O-])ccc1O [Compound 9, N-(2-Chloro-4-nitrophenyl)-2-hydroxy-5-nitrobenzamide]
- reduction of recombinant STAT3/DNA-binding relative to niclosamide [3]: means less than or equal to niclosamide

- reduction of recombinant STAT3/DNA-binding relative to niclosamide [3]: performed worse than niclosamide
- mean value, % of STAT3 only control [3]: 80%
Compound: O=C(Nc1ccccc1Cl)c1cc(Cl)ccc1O [Compound 3, 5-Chloro-N-(2-chlorophenyl)-2-hydroxybenzamide]

- colony formation of CD34+ normal hematopoietic stem cells [7]: not affected
- reduction of STAT3/DNA-binding (STAT3): approx. 80%
- EC50 (STAT3): 59 ± 11 nM
- EC50 (HeLa cells [2]): 315 ± 70 nM
- reduction of recombinant STAT3/DNA-binding relative to niclosamide [3]: means less than or equal to niclosamide
Compound: O=C(Nc1ccc([N+](=O)[O-])cc1Cl)c1cc(Cl)c(-c2ccco2)cc1O [Compound 17, 5-Chloro-N-(2-chloro-4-nitrophenyl)-4-(furan-2-yl)-2-hydroxybenzamide]
- engraftment of primary AML cells (Primary AML cells): decreased engraftment
- reactive oxygen species (ROS) (Primary AML samples; AML cells): increased
- TCA cycle metabolites (Primary AML samples; heavy labeled glutamine flux): decrease in TCA cycle metabolites
- SLCA15 expression (Primary AML samples; western blot): downregulated
- oxygen consumption [6]: decrease in oxygen consumption
- induction of apoptosis (HeLa cells [1]; 1 μM): time-dependent increase in apoptosis
- colony formation of primary human AML cells (Primary human AML cells): significant decrease in colony formation
- cell viability of LSCs [8]: significant cell death
- total cell viability (HeLa cells [2]): did not drop below 50% until high concentrations
- expression of OXPHOS and mitochondrial matrix genes [9]: decrease in the expression
- Myc expression ([9]; verified by qPCR and western blot): decreased
- viability of CD34+ normal hematopoietic stem cells [10]: not affected

- affinity for the SH2 domain (SH2 domain of STAT3 [4]): slight affinity for the SH2 domain
Compound: O=C(Nc1ccc([N+](=O)[O-])cc1Cl)c1cc(Cl)c(-c2ccccc2)cc1O [Compound 14, 2-Chloro-N-(2-chloro-4-nitrophenyl)-5-hydroxy-[1,1′-biphenyl]-4-carboxamide]

- reduction of recombinant STAT3/DNA-binding relative to niclosamide [3]: performed worse than niclosamide
- mean value, % of STAT3 only control [3]: 76%
Compound: O=C(Oc1ccc([N+](=O)[O-])cc1Cl)c1cc(Cl)ccc1O [Compound 4, 2-Chloro-4-nitrophenyl 5-chloro-2-hydroxybenzoate]

- reduction of STAT3/DNA-binding (STAT3): approx. 80%
- EC50 (STAT3): 179 ± 28 nM
- EC50 (HeLa cells [2]): 1000 nM
Compound: O=C(Nc1ccc([N+](=O)[O-])cc1Cl)c1cc(Cl)ccc1O [niclosamide, reference compound]
- induction of apoptosis (HeLa cells [1]; 1 μM): only a slight increase in apoptosis
- induction of apoptosis (HeLa cells [1]; 10 μM): twice as much apoptosis

From patent US11952353B2, “STAT3 transcription factor inhibitors and methods of using the same” (The Regents of the University of Colorado, A Body Corporate, priority 2018, dated 2024)
